Laboratory results published in patent US20040044075A1, “Alpha acyloxyacetamides for kallikrein and urokinase inhibition” (Genzyme Corporation, priority 2002, published 2004).
One block for each compound: values may come before it.

Experiments:
Kallikrein = Kallikrein (Homo sapiens, UniProt P03952); test: Kallikrein inhibition assay (fluorometric, H-Pro-Phe-Arg-AMC substrate); assay type: biochemical; settings: 24° C, HEPES pH 7.5, 5% DMSO, fluorescence after ten minutes
Procedure: Kallikrein activity was assayed fluorometrically with an aminomethyl coumarin-containing (AMC-containing) substrate according to procedures described in Zimmerman et al., Proc. Natl. Acad. Sci. USA 75:750 (1978), the entire teachings of which are incorporated herein by reference. Specifically, enzyme assays with varying concentrations of the fluorogenic substrate H-Pro-Phe-Arg-AMC were conducted at 24° C in 0.05 M 4-(2-hydroxyethyl)-piperazineethanesulfonic acid (HEPES) buffer, pH 7.5/5% (vol/vol) dimethyl sulfoxide. The final volume was 0.1 ml in each assay. Fluorescence was read after ten minutes at 360 nm (activation wavelength) and 460 nm (emission wavelength).

[1] = system: ICR derived male or female mice; test: Acetic acid writhing assay; assay type: in vivo; settings: for % Reduction of Writhes: one hour before acetic acid
Procedure: The analgesic activity of a number of compounds of the present invention were tested in an acetic acid writhing assay disclosed in Inoue et al., Arzneimittel Forschung Drug Research 41:228 (1991), the entire teachings of which are incorporated herein by reference. The test substance was administered intraperitoneally (500, 100 and 20 mg/kg) to groups of 3 ICR derived male or female mice weighing 22±2 g one hour before the injection of acetic acid (3%, 10 ml/kg, IP). Reduction in the number of writhes by 50% or more per group of animals observed during the 5-10 minutes period after acetic acid administration, relative to a vehicle-treated control group (challenge with acetic acid), indicates analgesic activity.

[2] = system: Long Evans derived male or female rats; test: Carageenan assay (hind paw edema); assay type: in vivo; settings: for Inhibition (of hind paw edema): 3 hours after carageenan; for Edema: hind paw edema 3 hours after carageenan
Procedure: The assay was performed according to procedures disclosed in Winter et al, Proc. Exper. Biol. Med 111: 544 (1962), the entire teachings of which are incorporated herein by reference. […] Hind paw edema, as a measure of inflammation, was measured 3 hours after carageenan administration using a plethysmometer (Ugo Basile Catalog No. 7150) with water cell (25 mm diameter, Catalog No. 7157). Reduction of hind paw edema by 30% or more indicates significant acute anti-inflammatory activity.

male rats = test: Rat model of inflammatory bowel disease (DNBS-induced distal colitis); assay type: in vivo
Procedure: Compounds were tested according to procedures described in C M Hogaboam et al., Eur. J. Pharmacol. 309:261 (1996), the entire teachings of which are incorporated herein by reference. Groups of 3 overnight fasted male rats weighing 150±10 grams were used. Distal colitis was induced by intra-colonic instillation of 0.5 ml/rat of DNBS (2,4-dinitrobenzene sulfonic acid, 60 mg/ml in ethanol 30%) after which air (2 ml) was gently injected through the cannula to ensure that the solution remained in the colon. Test compound was administered orally 24 and 2 hours before DNBS instillation and then daily for 5 days in total of 7 doses. The animals were sacrificed 24 hours after the final dose of test compound administration and each colon was removed and weighed. A 30 percent or more (≧30%) inhibition in net increase of colon to 100 grams body weight ratio, relative to vehicle-control-2 group is considered significant.

[3] = 4 mg/kg PO × 7, with DNBS, rats
[4] = 20 mg/kg PO × 7, with DNBS, rats
[5] = 75 mg/kg PO × 7, with DNBS, rats

Chain of Kallikrein (P03952 whole entry): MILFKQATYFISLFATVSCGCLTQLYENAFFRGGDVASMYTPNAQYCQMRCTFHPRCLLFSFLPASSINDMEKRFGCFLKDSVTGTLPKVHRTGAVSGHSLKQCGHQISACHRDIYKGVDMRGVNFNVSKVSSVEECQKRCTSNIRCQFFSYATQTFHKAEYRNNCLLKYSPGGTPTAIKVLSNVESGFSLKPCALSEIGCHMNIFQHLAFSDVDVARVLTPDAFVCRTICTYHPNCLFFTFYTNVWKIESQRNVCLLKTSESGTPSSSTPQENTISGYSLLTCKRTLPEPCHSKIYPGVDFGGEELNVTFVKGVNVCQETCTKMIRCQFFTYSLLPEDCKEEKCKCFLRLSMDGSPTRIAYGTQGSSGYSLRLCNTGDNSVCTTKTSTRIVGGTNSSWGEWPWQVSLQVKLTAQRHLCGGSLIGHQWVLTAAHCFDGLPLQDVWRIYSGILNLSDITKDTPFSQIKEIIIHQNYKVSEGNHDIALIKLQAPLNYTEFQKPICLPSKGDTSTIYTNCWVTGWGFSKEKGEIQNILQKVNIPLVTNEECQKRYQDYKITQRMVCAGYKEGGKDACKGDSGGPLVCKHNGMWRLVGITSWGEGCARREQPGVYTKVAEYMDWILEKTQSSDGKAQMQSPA

Compound: COc1ccc(OC)c(C(=O)CCC(=O)OC(C(=O)NCc2cc(OC)c(OC)c(OC)c2)c2ccc(Br)cc2)c1 (stereo not drawn) [Compound (26)]
IC50 (Kallikrein): 0.191 µM
% Reduction of Writhes ([1]; 20 mg/kg IP): 25%
% Reduction of Writhes ([1]; 100 mg/kg IP): 58%
% Reduction of Writhes ([1]; 500 mg/kg IP): 75%
significance of response in the acetic acid writhing test (in words) ([1]; both the 500 and 100 mg/kg doses IP): significant response
Inhibition (of hind paw edema) ([2]; 30 mg/kg IP): 0%
Edema ([2]; 30 mg/kg IP): 0.97 mL
Inhibition (of hind paw edema) ([2]; 100 mg/kg IP): 19%
Edema ([2]; 100 mg/kg IP): 0.76 mL
Inhibition (of hind paw edema) ([2]; 300 mg/kg IP): 34%
Edema ([2]; 300 mg/kg IP): 0.62 mL
dose response in the carageenan assay (in words) ([2]; 300, 100 and 30 mg/kg IP): dose responsive activity
statistical significance of response in the carageenan assay (in words) ([2]; highest dose (300 mg/kg) IP): statistically significant response
Ave. (average final weight of the colon in grams) (male rats; [3]): 1.061 grams
Inhibition (percent inhibition in net increase of colon weight relative to control Group 2) (male rats; [3]): 0%
Net Inc. (net increase in weight of the colon relative to control Group 1) (male rats; [3]): 0.574 grams
Ave. (average final weight of the colon in grams) (male rats; [4]): 0.947 grams
Inhibition (percent inhibition in net increase of colon weight relative to control Group 2) (male rats; [4]): 17%
Net Inc. (net increase in weight of the colon relative to control Group 1) (male rats; [4]): 0.460 grams
Ave. (average final weight of the colon in grams) (male rats; [5]): 0.857 grams
Inhibition (percent inhibition in net increase of colon weight relative to control Group 2) (male rats; [5]): 33%
Net Inc. (net increase in weight of the colon relative to control Group 1) (male rats; [5]): 0.370 grams
dose response in the rat model of inflammatory bowel disease (in words) (male rats; 75, 20 and 4 mg/kg PO × 7, rats): dose responsive activity
statistical significance of response in the rat model of inflammatory bowel disease (in words) (male rats; highest dose (75 mg/kg) PO × 7, rats): statistically significant response
activity in a rat model of inflammatory bowel disease (in words) (male rats; summary statement): activity

Compound: COc1ccc2c(c1)c(CC(=O)O)c(C)n2C(=O)c1ccc(Cl)cc1 [Indomethacin, reference compound]
Inhibition (of hind paw edema) ([2]; 10 mg/kg IP): 53%
Edema ([2]; 10 mg/kg IP): 0.44 mL

Compound: COc1ccc(OC)c(C(=O)CCC(=O)OC(C(=O)NCc2cc(OC)c(OC)c(OC)c2)c2ccc3ccccc3c2)c1 (stereo not drawn) [Compound (24)]
IC50 (Kallikrein): 0.247 µM
% Reduction of Writhes ([1]; 20 mg/kg IP): 0%
% Reduction of Writhes ([1]; 100 mg/kg IP): 25%
% Reduction of Writhes ([1]; 500 mg/kg IP): 83%

Second part, led by results:

IC50 (Kallikrein): 0.364 µM
Compound: COc1cc(CNC(=O)C(OC(=O)CCOc2ccccc2)c2ccc(Br)cc2)cc(OC)c1OC (stereo not drawn) [Compound (27)]
% Reduction of Writhes ([1]; 20 mg/kg IP): 8%
% Reduction of Writhes ([1]; 100 mg/kg IP): 25%
% Reduction of Writhes ([1]; 500 mg/kg IP): 92%

IC50 (Kallikrein): 0.31 µM
Compound: COc1ccc(NC(=O)C(OC(=O)CSc2ncccn2)c2ccc(Br)cc2)cc1OC (stereo not drawn) [Compound (29)]
% Reduction of Writhes ([1]; 20 mg/kg IP): 17%
% Reduction of Writhes ([1]; 100 mg/kg IP): 33%
% Reduction of Writhes ([1]; 500 mg/kg IP): 83%
